Results taken from US9034792B2, “Antifungal compositions” (DSM IP ASSETS B.V., priority 2011, dated 2015).
Several values for one entry are separate records, joined by “and”; a condition that tells them apart may be missing. Identical values can stand only once.

Columns and labels:
Format in all cases: in vivo
Penicillium italicum = test: Treatment of wounded mandarins inoculated with Penicillium italicum; conditions: 20° C., 250 ppm natamycin
Procedure: Ten fresh, organic mandarins were used per treatment. The peel of each mandarin was wounded once using a cork borer according to the method described by de Lapeyre de Bellaire and Dubois (1987). Subsequently, each wound was inoculated with 10 μl of a Penicillium italicum suspension containing 1×10^4 of spores/ml. […] The pH of the compositions was 4. A composition without natamycin or fluoxastrobin was used as control.
(§1) The treated mandarins were incubated in a closed box in the dark at 20° C. and assessed on mould growth after 10, 15, 19, 22 and 27 days of incubation. The antifungal activity (in %) of the individual active ingredients was determined by calculating the reduction in mould growth observed on the mandarins treated with the antifungal composition in comparison to the mould growth on the mandarins treated with the control composition. The expected antifungal activity (E in %) of the combined antifungal composition comprising both active ingredients was calculated according to the Colby equation (Colby, 1967): E=X+Y−[(X·Y)/100] wherein X and Y are the observed antifungal activities (in %) of the individual active ingredients X and Y, respectively. If the observed antifungal activity (O in %) of the combination exceeds the expected antifungal activity (E in %) of the combination and the synergy factor O/E is thus >1.0, the combined application of the active ingredients leads to a synergistic antifungal effect.
A composition without natamycin or trifloxystrobin was used as control. The antifungal activity (in %) of the individual and combined active ingredients on mandarins was assessed after 8, 10 and 19 days of incubation according to the method described in Example 9.

Fusarium proliferatum = test: Treatment of wounded bananas inoculated with Fusarium proliferatum; conditions: 20° C.
Procedure: Four organic, unripe (green) bananas were used per treatment. The peel of each banana was wounded thrice using a cork borer according to the method described by de Lapeyre de Bellaire and Dubois (1987). Subsequently, each wound was inoculated with 15 μl of a Fusarium proliferatum suspension containing 1×10^5 of spores/ml. […] In addition, the antifungal compositions comprised 1.00% (w/w) methylhydroxyethylcellulose (MHEC), 0.40% (w/w) xanthan gum, 0.20% (w/w) anti-foaming agent, 0.30% (w/w) citric acid, 0.39% (w/w) lactic acid and 0.11% (w/w) potassium sorbate. The pH of the compositions was 4. […] The treated, unripe bananas were incubated in a closed box in the dark at 20° C. and a relative air humidity of 95%, which was obtained in the presence of a saturated Na2HPO4 aqueous solution. During the first 10 days of incubation, a ripe (yellow) banana was included in the closed box to elevate the ethylene gas level and thus induce ripening of the treated, unripe bananas.
The expected antifungal activity (E in %) of the combined antifungal composition comprising both active ingredients was calculated according to the Colby equation (Colby, 1967): E=X+Y−[(X·Y)/100] wherein X and Y are the observed antifungal activities (in %) of the individual active ingredients X and Y, respectively. If the observed antifungal activity (O in %) of the combination exceeds the expected antifungal activity (E in %) of the combination and the synergy factor O/E is thus >1.0, the combined application of the active ingredients leads to a synergistic antifungal effect.
The degree of mould growth on the banana wounds was assessed according to the two methods described in Example 3.

Botrytis cinerea = test: Treatment of wounded strawberries inoculated with Botrytis cinerea; conditions: 20° C.
Procedure: Twelve fresh, organic strawberries were used per treatment. Each strawberry was wounded with a 0.5 mm long cut and each wound was inoculated with 10 μl of a Botrytis cinerea suspension containing 1×10^5 of spores/ml. […] The antifungal composition also comprised 1.00% (w/w) methylhydroxyethylcellulose (MHEC), 0.40% (w/w) xanthan gum, 0.20% (w/w) anti-foaming agent, 0.30% (w/w) citric acid, 0.39% (w/w) lactic acid and 0.11% (w/w) potassium sorbate. The pH of the compositions was 4.
as §1, with “strawberries” for “mandarins”, “4, 5, 7” for “10, 15, 19, 22”, “8” for “27”, “The antifungal activity (in %) of the individual active ingredients was determined by calculating the reduction in mould growth observed on the mandarins treated with the antifungal composition in comparison to the mould growth on the mandarins treated with the control composition.” left out, “effect. […]” for “effect.”

[1] = 8 days, 400 ppm trifloxystrobin or both
[2] = 10 days, 400 ppm trifloxystrobin or both
[3] = 19 days, 400 ppm trifloxystrobin or both
[4] = 27 days, 500 ppm natamycin, 1000 ppm trifloxystrobin or both
[5] = 3 days, 50 ppm natamycin, 250 ppm trifloxystrobin or both
[6] = 5 days, 50 ppm natamycin, 250 ppm trifloxystrobin or both
[7] = 5 days, 250 ppm natamycin, 500 ppm trifloxystrobin or both
[8] = 5 days, 500 ppm natamycin, 1000 ppm trifloxystrobin or both
[9] = 7 days, 250 ppm natamycin, 500 ppm trifloxystrobin or both
[10] = 7 days, 500 ppm natamycin, 1000 ppm trifloxystrobin or both
[11] = 8 days, 250 ppm natamycin, 500 ppm trifloxystrobin or both
[12] = 8 days, 500 ppm natamycin, 1000 ppm trifloxystrobin or both
[13] = 9 days, 250 ppm natamycin, 500 ppm trifloxystrobin or both
[14] = 10 days, 500 ppm fluoxastrobin or both
[15] = 15 days, 500 ppm fluoxastrobin or both
[16] = 19 days, 500 ppm fluoxastrobin or both
[17] = 22 days, 500 ppm fluoxastrobin or both
[18] = 27 days, 500 ppm fluoxastrobin or both
[19] = 21 days, 500 ppm natamycin, 1000 ppm fluoxastrobin or both
[20] = 27 days, 250 ppm natamycin, 500 ppm fluoxastrobin or both
[21] = 27 days, 500 ppm natamycin, 1000 ppm fluoxastrobin or both

| Compound | Observed antifungal activity O (%) (Penicillium italicum; [1]) | Observed antifungal activity O (%) (Penicillium italicum; [2]) | Observed antifungal activity O (%) (Penicillium italicum; [3]) | Number of moulded wounds/total number of 12 wounds (Fusarium proliferatum; [4]) | Observed antifungal activity O (%) (Fusarium proliferatum; [4]) | Observed antifungal activity O (%) (Botrytis cinerea; [5]) | Observed antifungal activity O (%) (Botrytis cinerea; [6]) | Number of moulded strawberries/total number of 12 strawberries (Botrytis cinerea; [7]) | Number of moulded strawberries/total number of 12 strawberries (Botrytis cinerea; [8]) | Observed antifungal activity O (%) (Botrytis cinerea; [8]) | Observed antifungal activity O (%) (Botrytis cinerea; [9]) | Observed antifungal activity O (%) (Botrytis cinerea; [10]) | Observed antifungal activity O (%) (Botrytis cinerea; [11]) | Observed antifungal activity O (%) (Botrytis cinerea; [12]) | Observed antifungal activity O (%) (Botrytis cinerea; [13]) | Observed antifungal activity O (%) (Penicillium italicum; [14]) | Observed antifungal activity O (%) (Penicillium italicum; [15]) | Observed antifungal activity O (%) (Penicillium italicum; [16]) | Observed antifungal activity O (%) (Penicillium italicum; [17]) | Observed antifungal activity O (%) (Penicillium italicum; [18]) | other results |
| --- | --- | --- | --- | --- | --- | --- | --- | --- | --- | --- | --- | --- | --- | --- | --- | --- | --- | --- | --- | --- | --- |
| CON=C(C(=O)OC)c1ccccc1CON=C(C)c1cccc(C(F)(F)F)c1 [Trifloxystrobin, trifloxystrobin] | 61% | 42% | 0% | 10 and 10/12 | 75% | 50% | 7% | 12 and 12/12 | 12 and 12/12 | 0% | 0% | 6% | 0% | 6% | 0% | – | – | – | – | – | – |
| CO/N=C(/C1=NOCCO1)c1ccccc1Oc1ncnc(Oc2ccccc2Cl)c1F [Fluoxastrobin, fluoxastrobin] | – | – | – | – | – | – | – | – | – | – | – | – | – | – | – | 28% | 24% | 6% | 4% | 0% | Number of moulded wounds/total number of 12 wounds (Fusarium proliferatum; [19]): 10 and 10/12; Observed antifungal activity O (%) (Fusarium proliferatum; [19]): 42%; Observed antifungal activity O (%) (Fusarium proliferatum; [20]): 31%; Number of moulded wounds/total number of 12 wounds (Fusarium proliferatum; [21]): 12 and 12/12; Observed antifungal activity O (%) (Fusarium proliferatum; [21]): 7% |
| natamycin | 83% | 54% | 5% | 12 and 12/12 | 63% | 64% | 17% | 12 and 12/12 | 12 and 12/12 | 31% | 10% | 13% | 2% | 0% | 0% | 54% | 19% | 5% | 5% | 5% | Number of moulded wounds/total number of 12 wounds (Fusarium proliferatum; [19]): 6 and 6/12; Observed antifungal activity O (%) (Fusarium proliferatum; [19]): 78%; Observed antifungal activity O (%) (Fusarium proliferatum; [20]): 4%; Number of moulded wounds/total number of 12 wounds (Fusarium proliferatum; [21]): 12 and 12/12; Observed antifungal activity O (%) (Fusarium proliferatum; [21]): 63% |
